Experimental findings from patent US10662146B2, “Prodrugs of fencamfamine” (Praxis Bioresearch, LLC, priority 2015, dated 2020) are described below.

The nature of the data set: Single dose intravenous PK study in male Sprague Dawley rats (plasma by LC-MS/MS). The class given is in vivo. Conditions: single IV dose 2 mg/kg b.w., mean plasma PK parameters (Table 39.27). Summed up:
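Adult male Sprague Dawley rats (8-10 weeks) received IV bolus prodrug at 2 mg/kg PRX-002-equivalent unless specified, with 10 or 15 mg/kg in some studies; formulations in PEG 400/HPβCD/water (±DMSO), freshly prepared. Retro-orbital K2EDTA plasma sampled over 24 h; fencamfamine quantified by LC-MS/MS, AUC versus unconjugated fencamfamine.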

The molecule `CCN[C@H]1[C@H]2CC[C@H](C2)[C@@H]1c1ccccc1` [PRX-002 (+) Isomer, (1S,2S,3R,4R)—N-Ethyl-3-phenylbicyclo[2.2.1]heptan-2-amine, reference compound] displayed an AUCextrap of 6.639 ± 2.427%. Further, the AUC(0-inf) (male, Sprague Dawley, rat, plasma, iv, 2 mg/kg, read-out: AUCinf) turned out to be 268 ± 23.5 ng·h/mL. Further, the AUC(0-t) (male, Sprague Dawley, rat, plasma, iv, 2 mg/kg, read-out: AUClast) is 250 ± 15.2 ng·h/mL. Further, the C0 (male, Sprague Dawley, rat, plasma, iv, 2 mg/kg, read-out: C0) came to 291 ± 61.8 ng/mL. Also, under “male, Sprague Dawley, rat, plasma, iv, 2 mg/kg, read-out: CL”, the clearance amounted to 125 ± 10.6 mL/min/kg. Further, the peak concentration (Cmax) (male, Sprague Dawley, rat, plasma, iv, 2 mg/kg, read-out: Cmax) stood at 234 ± 37.9 ng/mL. In addition, the MRT last (male, Sprague Dawley, rat, plasma, iv, 2 mg/kg, read-out: MRTlast) came to 1.05 ± 0.071 h. Also, the half-life (male, Sprague Dawley, rat, plasma, iv, 2 mg/kg, read-out: T1/2 (converted)) is 1.08 ± 0.152 h. In addition, the Vd (male, Sprague Dawley, rat, plasma, iv, 2 mg/kg, read-out: Vss) turned out to be 10.1 ± 0.51 L/kg. Also, for the setting “male, Sprague Dawley, rat, read-out: Tmax”, the Tmax came to 4.8 min.
